Tests used:
[1] = tested on: elastase derived from human skin fibroblasts (NHDF-Ad); assay: elastase activity inhibition test (anti-wrinkle test); format: biochemical; details: 50 nM; 37° C. for 2 hours
Description: Therefore, in this example, elastase activity was evaluated by measuring an amount of nitroaniline produced using elastase derived from human skin fibroblasts (NHDF-Ad), and using N-Succinyl-Ala-Ala-Ala-β-nitroanilide as a substrate. Based on the elastase activity, a skin dermis elasticity retention and aging function (an activity inhibition rate) of the test object of rice malt lactic acid bacterium fermentation liquid SW01 (hereinafter, SW01) was examined.
The elastase activity was set to 100% using, as a control, a reaction with only elastase derived from human skin fibroblasts (NHDF-Ad) and N-Succinyl-Ala-Ala-Ala-β-nitroanilide as a substrate. Reaction conditions in this experiment were 37° C. for 2 hours.

[2] = tested on: rat basophilic leukemia cell RBL-2H3; assay: degranulation inhibition: β-hexosaminidase activity of antigen-stimulated RBL-2H3 cells; format: cell-based; details: 50 µg/mL, positive control
Description: To determine an extent to which the test object inhibits degranulation, degranulation is assessed by measuring the activity of β-hexosaminidase, which is abundantly present in the granulocyte. Accordingly, the effect of the test object on allergic reaction is evaluated. It is known that rat basophilic leukemia cell RBL-2H3 releases the granulocyte containing histamine and the like to the outside of the cell when IgE bound to the cell surface is cross-linked with an antigen. This has been applied as an experimental system to exploratory research and the like as screening for substances having an anti-allergic action against type I allergy. In this example, the inhibition of degranulation is evaluated by stimulating RBL-2H3 cells with an antigen and measuring the activity of β-hexosaminidase (FIG. 4). […] Further, […] of quercetin was used as a positive control. […] By adding […] of the rice malt lactic acid bacterium fermentation liquid SW01, the activity of β-hexosaminidase was about 50%. […] Note that, the p value in FIG. 4 is p<0.01.

elastase inhibition by standard agent [1] | SMILES | activity of β-hexosaminidase (control with sterilized water = 100%) [2]
show elastase inhibition | CC(C)C[C@H](NP(=O)(O)O[C@@H]1O[C@@H](C)[C@H](O)[C@@H](O)[C@H]1O)C(=O)N[C@@H](Cc1c[nH]c2ccccc12)C(=O)O [phosphoramidon] | –
– | O=c1c(O)c(-c2ccc(O)c(O)c2)oc2cc(O)cc(O)c12 [quercetin] | about 40%
